Series [1] deals with patients with diarrhea-predominant IBS. In words: Scintigraphic measurement of colonic transit (colonic geometric center at 24 hours) at baseline and after 6 weeks of alosetron. In kind it is in vivo, human. The conditions noted are these: for change in colonic geometric center (ΔGC) at 24 hr: 6 weeks vs baseline, negative = slower transit. The text has this:
Colonic transit can be monitored by known methods (Camilleri M. and Zinsmeister A. R., Gastroenterology 103:36-42 (1992); and Camilleri M. et al., Dig. Dis. Sci. 36:609-615 (1991)). In general, labeled (e.g., ^111In) pellets can be delivered to the colon by means of a methacrylate-coated, delayed-release capsule. Simultaneously, labeled (e.g., ^99mTc) pellets can be ingested in a scrambled egg, toast, and milk meal to facilitate measurement of gastric and small bowel transit. A large field gamma camera (e.g., GE 500, General Electric, Milwaukee, Wis.) with a medium energy parallel hole collimator can be used to obtain images. Typically, images are obtained with subjects in the erect position. A variable region of interest (ROI) program can be used to measure colonic transit, with abdominal images obtained at periodic intervals (e.g.,4, 6, 8, 24, 32, and 48 hours pre- or post-treatment. The amount of label can be determined from the abdominal images in four colonic regions: the ascending, transverse, descending, and combined sigmoid and rectum regions. These counts may be corrected for isotope decay and tissue attenuation, as described in Camilleri et al. (1991) and Camilleri and Zinsmeister (1992), referenced above. The colonic geometric center is the weighted average of counts in the four different colonic regions [ascending (AC), transverse (TC), descending (DC), rectosigmoid (RS) and stool]:
(% AC×1+% TC×2+% DC×3+% RS×4+% stool×5)/100=geometric center
A high geometric center implies faster colonic transit, while a reduction of geometric center with treatment implies a retardation of colonic transit.
Thirty patients with diarrhea-predominant IBS associated were studied. Gastrointestinal and colonic transit were performed during a baseline period and during the last week of a 6-week therapeutic trial with alosetron 1 mg twice daily (b.i.d.). Demographic data of the original 30 participants are as follows: mean age 43.2±3y (females 46±4y, males 40±4y); mean duration of IBS 11.2±2.0y (females 9.2±2.3y and males 13.1±3.2y). Twenty-three of the 30 patients agreed to participate in an evaluation of the influence of the genotype of the promoter region of the 5-HTTP gene. The demographics, gender, and duration of illness in the three groups of patients according to 5-HTTP genotype are shown in the table below.
An established scintigraphic method was used as referenced above. Briefly, ^111In pellets were delivered to the colon by means of a methacrylate-coated, delayed-release capsule. Simultaneously, ^99mTc pellets were ingested in a scrambled egg, toast, and milk meal (218 kcal) to facilitate measurement of gastric and small bowel transit. Subjects ingested standardized meals for lunch and dinner. A variable region of interest (ROI) program was used to measure colonic transit. Abdominal images at 4, 6, 8, 24, 32, and 48 hours were obtained using a large field of view gamma camera (GE 500, General Electric, Milwaukee, Wis.) with a medium energy parallel hole collimator. All images were obtained with the subjects in the erect position. Radioscintigraphic markers were placed for reference on the anterior ends of the iliac crests. Anterior and posterior images were obtained with the camera positioned over the abdomen. This facilitated subsequent correction of radioisotopic counts for tissue attenuation.
The counts in four colonic regions were determined: the ascending, transverse, descending, and combined sigmoid and rectum regions. These counts were corrected for isotope decay and tissue attenuation, as referenced above. The primary endpoint of investigation was the colonic geometric center at 24 hours. The colonic geometric center is the weighted average of counts in the four different colonic regions [ascending (AC), transverse (TC), descending (DC), rectosigmoid (RS) and stool]:
Thus, a high geometric center implies faster colonic transit, while a reduction of geometric center with treatment implies a retardation of colonic transit. […]

The conditions of series [2]: by gender; cited from earlier work.
Series [3] concerns patients with diarrhea-predominant IBS. Conditions: cited from earlier work.
The mark [4] stands for this setting: females, alosetron 1 mg b.i.d., 6 weeks.
Where [5] appears, read: males, alosetron 1 mg b.i.d., 6 weeks.

For the compound `Cc1[nH]cnc1CN1CCc2c(c3ccccc3n2C)C1=O` [alosetron], in series [1] (setting [4]), the “number of females in whom there was no effect on colonic transit” value was found to be 2. Besides, the “number of patients with retardation of colonic transit greater than the clinically significant threshold of 1.14 colonic regions” value in series [1] (setting [4]) is listed as “Nine”; in series [1] (setting [5]), 3. Moreover, the “change in colonic geometric center (ΔGC) at 24 hr” value is listed as −1.45±0.25 geometric center units in series [1] (females, alosetron 1 mg b.i.d., p=0.005 vs males) and −0.32±0.27 geometric center units in series [1] (males, alosetron 1 mg b.i.d.). In addition, the “colonic transit response by 5-HTTP promoter genotype (change of 1.14 units in ΔGC24h, FIG. 2)” value in series [1] (genotype groups after treatment with alosetron) is given as “a greater response was observed in those with the long polymorphism”. Further, the “proportion of high responders (slowing of colonic transit by more than 1.14 regions)” value in series [1] (heterozygous 5-HTTP promoter genotype group) is given as 2 of 11; in series [1] (long variant homozygous 5-HTTP promoter genotype group, Fisher's exact test p=0.024 vs heterozygous), 6 of 8. The “colonic transit response by 5-HTTP promoter genotype” value in series [1] (long/long homozygous vs long/short heterozygous patients, p=0.039) is recorded as “significantly higher response in long variant/long variant homozygous”. For the same compound, in series [1] (setting [5]), the “males with retardation of colonic transit at 24 hours equal to or greater than the mean change in females (1.45 geometric center units)” value is 2 of 15. Besides, the “colonic geometric centers at 24 hours following treatment compared to baseline” value in series [1] (patients with IBS, alosetron 1 mg b.i.d., last week of 6-week trial, lower = slower colonic transit) is given as “significantly lower”. Besides, the “systemic exposure, females compared to males” value in series [2] is reported as “slightly greater systemic exposure”. The “adequate relief of IBS pain and discomfort and normalization of bowel function” value in series [3] (clinical trials, women with diarrhea-predominant IBS) is given as “beneficial effect”. Further, the “effect on colonic transit in patients with diarrhea-predominant IBS” value in series [3] (greater effect in females than males) is reported as “significantly prolonged”.

These data come from US20030143548A1, “Predicting patient responsiveness to serotonergic therapy” (priority 2002, published 2003).
